Reference: patent US9181195B2, “Sigma receptor inhibitors” (Laboratorios Del Dr. Esteve, S.A., priority 2010, dated 2015)
pKi: −log10 of the molar value. Where a name gives a salt, the structure may show the parent alone.

Target: T1, σ1-receptor (Cavia porcellus, UniProt Q60492)
T1 construct: guinea pig brains were homogenized; from tissue; host or cells: guinea pig brain membranes
Experiment: σ1-receptor binding assay, [3H](+)-pentazocine, guinea pig brain membranes
Details: [3H](+)-pentazocine 0.5 nM, non-specific binding 1 μM haloperidol, 37° C., 150 min
Method: Some representative compounds of the invention were tested for their activity as sigma (sigma-1) inhibitors. The following protocol was followed:
Brain membrane preparation and binding assays for the σ1-receptor were performed as described (DeHaven-Hudkins et al., 1992) with some modifications. In brief, guinea pig brains were homogenized in 10 vols. (w/v) of Tris-HCl 50 mM 0.32 M sucrose, pH 7.4, with a Kinematica Polytron PT 3000 at 15000 r.p.m. for 30 s. The homogenate was centrifuged at 1000 g for 10 min at 4° C. and the supernatants collected and centrifuged again at 48000 g for 15 min at 4° C. The pellet was resuspended in 10 volumes of Tris-HCl buffer (50 mM, pH 7.4), incubated at 37° C. for 30 min, and centrifuged at 48000 g for 20 min at 4° C. Following this, the pellet was resuspended in fresh Tris-HCl buffer (50 mM, pH 7.4) and stored on ice until use.
Each assay tube contained 10 μL of [^3H](+)-pentazocine (final concentration of 0.5 nM), 900 μL of the tissue suspension to a final assay volume of 1 mL and a final tissue concentration of approximately 30 mg tissue net weight/mL. Non-specific binding was defined by addition of a final concentration of 1 μM haloperidol. All tubes were incubated at 37° C. for 150 min before termination of the reaction by rapid filtration over Schleicher & Schuell GF 3362 glass fibre filters [previously soaked in a solution of 0.5% polyethylenimine for at least 1 h]. Filters were then washed with four times with 4 mL of cold Tris-HCl buffer (50 mM, pH 7.4). Following addition of scintillation cocktail, the samples were allowed to equilibrate overnight. The amount of bound radioactivity was determined by liquid scintillation spectrometry using a Wallac Winspectral 1414 liquid scintillation counter. Protein concentrations were determined by the method of Lowry et al, (1951).

T1 sequence (Q60492 whole entry): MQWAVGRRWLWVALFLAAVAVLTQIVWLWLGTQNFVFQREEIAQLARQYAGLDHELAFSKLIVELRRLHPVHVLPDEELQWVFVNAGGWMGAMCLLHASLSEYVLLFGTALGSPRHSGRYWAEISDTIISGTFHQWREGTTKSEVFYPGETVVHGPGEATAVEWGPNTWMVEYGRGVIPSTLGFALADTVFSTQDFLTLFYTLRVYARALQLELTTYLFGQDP

| pKi | SMILES |
| --- | --- |
| 6.81 | c1ccc2ncc(-n3ccc(CCCN4CCOCC4)n3)cc2c1 [Compound 17, 4-(3-(1-(quinolin-3-yl)-1H-pyrazol-3-yl)propyl)morpholine] |
| 7.95 | c1cn(C2CCCCC2)nc1COCCN1CCOCC1 [Compound 25, 4-(2-((1-cyclohexyl-1H-pyrazol-3-yl)methoxy)ethyl)-morpholine-hydrochloride] |
| 8.20 | Clc1ccc(-n2ccc(CCCCN3CCOCC3)n2)cc1Cl [Compound 18, 4-(4-(1-(3,4-dichlorophenyl)-1H-pyrazol-3-yl)butyl)morpholine] |
| 7.64 | Cc1c(COCCN2CCOCC2)nn(-c2ccc(Cl)c(Cl)c2)c1C [Compound 16, 4-(2-((1-(3,4-dichlorophenyl)-4,5-dimethyl-1H-pyrazol-3-yl)methoxy)ethyl)-morpholine] |
| 8.17 | Cc1cc(COCCCN2CCOCC2)nn1C1CCCCC1 [Compound 20, 4-(3-((1-cyclohexyl-5-methyl-1H-pyrazol-3-yl)methoxy)propyl)-morpholine] |
| 6.55 | Cc1cc(CCCN2CCOCC2)nn1-c1cnc2ccccc2c1 [Compound 14, 4-(3-(5-methyl-1-(quinolin-3-yl)-1H-pyrazol-3-yl)propyl)morpholine] |
| 7.86 | Cc1cc(COCCN2CCOCC2)nn1-c1ccc(Cl)c(Cl)c1 [Compound 1, 4-(2-{[1-(3,4-dichlorophenyl)-5-methyl-1H-pyrazol-3-yl]methoxy}ethyl)morpholine] |
| 6.68 | Cc1cc(COCCN2CCOCC2)nn1-c1ccc2ccccc2c1 [Compound 2, 4-(2-{[1-(2-naphthyl)-5-methyl-1H-pyrazol-3-yl]methoxy}ethyl)morpholine] |
| 6.31 | Cc1cc(COCCN2C[C@@H](C)N[C@@H](C)C2)nn1C1CCCCC1 [Compound 23, (3S,5R)-1-(2-((1-cyclohexyl-5-methyl-1H-pyrazol-3-yl)methoxy)ethyl)-3,5-dimethylpiperazine hydrochloride] |
| 7.63 | Cc1cc(COCCN2CCOCC2)nn1C1CCCCC1 [Compound 6, 4-(2-((1-cyclohexyl-5-methyl-1H-pyrazol-3-yl)methoxy)ethyl)-morpholine] |
| 8.68 | Cc1cc(COCCN2CCCCC2)nn1-c1ccc(Cl)c(Cl)c1 [Compound 9, 1-(2-((1-(3,4-dichlorophenyl)-5-methyl-1H-pyrazol-3-yl)methoxy)ethyl)-piperidine] |
| 6.88 | Cc1cc(CCCN2CCOCC2)nn1-c1ccc2ccccc2c1 [Compound 4, 4-{3-[5-Methyl-1-(2-naphthyl)-1H-pyrazol-3-yl]propyl}morpholine] |
| 7.00 | CC(=O)N1CCN(CCOCc2cc(C)n(C3CCCCC3)n2)CC1 [Compound 22, 1-(4-(2-((1-cyclohexyl-5-methyl-1H-pyrazol-3-yl)methoxy)ethyl)-piperazin-1-yl)ethanone hydrochloride] |
| 6.62 | Cc1cc(COCCN2CCOCC2)nn1C1CCCC1 [Compound 21, 4-(2-((1-cyclopentyl-5-methyl-1H-pyrazol-3-yl)methoxy)ethyl)-morpholine] |
| 8.06 | Cc1cc(CCCCN2CCOCC2)nn1-c1ccc(Cl)c(Cl)c1 [Compound 13, 4-(4-(1-(3,4-dichlorophenyl)-5-methyl-1H-pyrazol-3-yl)butyl)morpholine] |
| 8.67 | Clc1ccc(-n2ccc(COCCN3CCOCC3)n2)cc1Cl [Compound 15, 4-(2-((1-(3,4-dichlorophenyl)-1H-pyrazol-3-yl)methoxy)ethyl)-morpholine] |
| 7.84 | CC(=O)N1CCN(CCOCc2cc(C)n(-c3ccc(Cl)c(Cl)c3)n2)CC1 [Compound 10, 1-(4-(2-((1-(3,4-dichlorophenyl)-5-methyl-1H-pyrazol-3-yl)methoxy)ethyl)-piperazin-1-yl)-ethanone] |
| 8.49 | Cc1cc(COCCN2C[C@@H](C)O[C@@H](C)C2)nn1-c1ccc(Cl)c(Cl)c1 [Compound 11, (2S,6R)-4-(2-((1-(3,4-dichlorophenyl)-5-methyl-1H-pyrazol-3-yl)methoxy)ethyl)-2,6-dimethylmorpholine] |
| 6.11 | Cc1cc(COCCN2CCOCC2)nn1-c1cnc2ccccc2c1 [Compound 12, 4-(2-((5-methyl-1-(quinolin-3-yl)-1H-pyrazol-3-yl)methoxy)ethyl)-morpholine] |
| 8.21 | Cc1cc(COCCN2CCCC2)nn1-c1ccc(Cl)c(Cl)c1 [Compound 8, 1-(3,4-dichlorophenyl)-5-methyl-3-((2-(pyrrolidin-1-yl)ethoxy)methyl)-1H-pyrazole] |
| 6.95 | Cc1cc(CCOCCN2CCOCC2)nn1-c1ccc(Cl)c(Cl)c1 [Compound 5, 4-(2-{2-[1-(3,4-dichlorophenyl)-5-methyl-1H-pyrazol-3-yl]ethoxy)ethyl}morpholine] |
| 6.57 | Cc1cc(CCOCCN2CCOCC2)nn1C1CCCCC1 [Compound 24, 4-(2-(2-(1-cyclohexyl-5-methyl-1H-pyrazol-3-yl)ethoxy)ethyl)-morpholine hydrochloride] |
| 7.27 | Cc1cc(CCCN2CCOCC2)nn1C1CCCCC1 [Compound 7, 4-(3-(1-cyclohexyl-5-methyl-1H-pyrazol-3-yl)propyl)morpholine] |
| 6.96 | Cc1c(COCCN2CCOCC2)nn(C2CCCCC2)c1C [Compound 26, 4-(2-((1-cyclohexyl-4,5-dimethyl-1H-pyrazol-3-yl)methoxy)ethyl)-morpholine hydrochloride] |
| 8.32 | Cc1cc(CCCN2CCOCC2)nn1-c1ccc(Cl)c(Cl)c1 [Compound 3, 4-{3-[1-(3,4-dichlorophenyl)-5-methyl-1H-pyrazol-3-yl]propyl}morpholine] |
